ChEMBL document CHEMBL4507295 (2021)

Experiments:
[1] = target: Mitogen-activated protein kinase kinase kinase 5 (Homo sapiens) (UniProt Q99683); details: Compound concentration 1000.0 nM
[2] = target: Serine/threonine-protein kinase 24 (Homo sapiens) (UniProt Q9Y6E0); details: Compound concentration 1000.0 nM
[3] = test system: Mast/stem cell growth factor receptor Kit (Homo sapiens), P10721 [D816H]; details: Compound concentration 1000.0 nM
[4] = target: Dual specificity tyrosine-phosphorylation-regulated kinase 2 (Homo sapiens) (UniProt Q92630); details: Compound concentration 1000.0 nM
[5] = test system: Epidermal growth factor receptor (Homo sapiens), P00533 [G719C]; details: Compound concentration 1000.0 nM
[6] = target: T1, 5-hydroxytryptamine receptor 3A (Homo sapiens) (UniProt P46098); details: Compound concentration 10.0 uM
T1 sequence (whole entry): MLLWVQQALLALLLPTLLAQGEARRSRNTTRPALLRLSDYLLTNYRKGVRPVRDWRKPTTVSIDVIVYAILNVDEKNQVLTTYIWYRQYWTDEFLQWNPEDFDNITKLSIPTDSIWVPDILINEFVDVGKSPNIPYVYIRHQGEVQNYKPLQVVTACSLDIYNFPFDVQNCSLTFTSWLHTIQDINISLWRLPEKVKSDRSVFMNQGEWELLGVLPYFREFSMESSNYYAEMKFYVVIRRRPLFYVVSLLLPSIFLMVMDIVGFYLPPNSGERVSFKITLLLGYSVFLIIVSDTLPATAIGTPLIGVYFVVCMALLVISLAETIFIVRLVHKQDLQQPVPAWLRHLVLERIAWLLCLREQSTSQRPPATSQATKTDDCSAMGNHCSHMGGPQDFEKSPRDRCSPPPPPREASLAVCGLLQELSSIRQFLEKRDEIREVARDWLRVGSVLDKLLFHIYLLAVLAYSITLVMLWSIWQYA

[7] = target: Mitogen-activated protein kinase kinase kinase 15 (Homo sapiens) (UniProt Q6ZN16); details: Compound concentration 1000.0 nM
[8] = target: Serine/threonine-protein kinase TBK1 (Homo sapiens) (UniProt Q9UHD2); details: Compound concentration 1000.0 nM
[9] = target: Dual specificity mitogen-activated protein kinase kinase 5 (Homo sapiens) (UniProt Q13163); details: Compound concentration 1000.0 nM
[10] = target: Serine/threonine-protein kinase N2 (Homo sapiens) (UniProt Q16513); details: Compound concentration 1000.0 nM
[11] = target: Casein kinase I isoform alpha (Homo sapiens) (UniProt P48729); details: Compound concentration 1000.0 nM
[12] = target: Misshapen-like kinase 1 (Homo sapiens) (UniProt Q8N4C8); details: Compound concentration 1000.0 nM
[13] = target: Serine/threonine-protein kinase pim-3 (Homo sapiens) (UniProt Q86V86); details: Compound concentration 1000.0 nM
[14] = test system: Hepatocyte growth factor receptor (Homo sapiens), P08581 [M1250T]; details: Compound concentration 1000.0 nM
[15] = target: Histamine H2 receptor (Homo sapiens) (UniProt P25021); details: Compound concentration 10.0 uM
[16] = target: Macrophage colony-stimulating factor 1 receptor (Homo sapiens) (UniProt P07333); details: Compound concentration 1000.0 nM
[17] = target: Calcium/calmodulin-dependent protein kinase type II subunit alpha (Homo sapiens) (UniProt Q9UQM7); details: Compound concentration 1000.0 nM
[18] = target: Ephrin type-B receptor 4 (Homo sapiens) (UniProt P54760); details: Compound concentration 1000.0 nM
[19] = target: Mitogen-activated protein kinase 4 (Homo sapiens) (UniProt P31152); details: Compound concentration 1000.0 nM
[20] = target: Myosin light chain kinase 2, skeletal/cardiac muscle (Homo sapiens) (UniProt Q9H1R3); details: Compound concentration 1000.0 nM
[21] = target: Mitogen-activated protein kinase kinase kinase 3 (Homo sapiens) (UniProt Q99759); details: Compound concentration 1000.0 nM
[22] = test system: Phosphatidylinositol 4,5-bisphosphate 3-kinase catalytic subunit alpha isoform (Homo sapiens), P42336 [E542K]; details: Compound concentration 1000.0 nM
[23] = target: TRAF2 and NCK-interacting protein kinase (Homo sapiens) (UniProt Q9UKE5); details: Compound concentration 1000.0 nM
[24] = target: Megakaryocyte-associated tyrosine-protein kinase (Homo sapiens) (UniProt P42679); details: Compound concentration 1000.0 nM
[25] = target: Serine/threonine-protein kinase 38-like (Homo sapiens) (UniProt Q9Y2H1); details: Compound concentration 1000.0 nM
[26] = target: Beta-adrenergic receptor kinase 1 (Homo sapiens) (UniProt P25098); details: Compound concentration 1000.0 nM
[27] = target: Ribosomal protein S6 kinase alpha-2 (Homo sapiens) (UniProt Q15349); details: Compound concentration 1000.0 nM
[28] = test system: Tyrosine-protein kinase ABL1 (Homo sapiens), P00519 [Q252H]; details: Compound concentration 1000.0 nM
[29] = target: GABA-A receptor; anion channel (Rattus norvegicus) (UniProt O09028+P15431+P18506+P18508+P19969+P20236+P23574+P23576+P28471+P28473+P30191+P62813+P63079+P63138+Q91ZM7+Q9ES14); details: Compound concentration 10.0 uM
[30] = target: Cyclin-dependent kinase-like 1 (Homo sapiens) (UniProt Q00532); details: Compound concentration 1000.0 nM
[31] = target: Epidermal growth factor receptor (Homo sapiens) (UniProt P00533); details: Compound concentration 1000.0 nM
[32] = target: Ephrin type-A receptor 3 (Homo sapiens) (UniProt P29320); details: Compound concentration 1000.0 nM
[33] = test system: Mast/stem cell growth factor receptor Kit (Homo sapiens), P10721 [V559D,V654A]; details: Compound concentration 1000.0 nM
[34] = target: Rhodopsin kinase GRK1 (Homo sapiens) (UniProt Q15835); details: Compound concentration 1000.0 nM
[35] = target: SNF-related serine/threonine-protein kinase (Homo sapiens) (UniProt Q9NRH2); details: Compound concentration 1000.0 nM
[36] = test system: Tyrosine-protein kinase ABL1 (Homo sapiens), P00519 [M351T]; details: Compound concentration 1000.0 nM
[37] = target: Calcium/calmodulin-dependent protein kinase type IV (Homo sapiens) (UniProt Q16566); details: Compound concentration 1000.0 nM
Sequence of Calcium/calmodulin-dependent protein kinase type IV (Homo sapiens) (Q16566 whole entry): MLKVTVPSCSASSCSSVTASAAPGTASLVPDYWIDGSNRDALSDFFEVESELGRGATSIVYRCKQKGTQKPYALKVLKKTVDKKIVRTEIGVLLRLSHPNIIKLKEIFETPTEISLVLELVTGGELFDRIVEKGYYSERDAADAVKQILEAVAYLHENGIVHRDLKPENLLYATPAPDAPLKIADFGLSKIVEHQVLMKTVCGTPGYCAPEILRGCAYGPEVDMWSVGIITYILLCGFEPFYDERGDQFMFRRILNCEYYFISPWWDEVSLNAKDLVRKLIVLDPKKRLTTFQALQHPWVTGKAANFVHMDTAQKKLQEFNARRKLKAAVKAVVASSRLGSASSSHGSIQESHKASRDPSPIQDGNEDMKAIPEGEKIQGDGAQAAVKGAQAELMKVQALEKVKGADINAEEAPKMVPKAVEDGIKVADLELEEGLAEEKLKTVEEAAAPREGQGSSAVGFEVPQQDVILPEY

Sequence of Serine/threonine-protein kinase N2 (Homo sapiens) (Q16513 whole entry, looked up, canonical isoform): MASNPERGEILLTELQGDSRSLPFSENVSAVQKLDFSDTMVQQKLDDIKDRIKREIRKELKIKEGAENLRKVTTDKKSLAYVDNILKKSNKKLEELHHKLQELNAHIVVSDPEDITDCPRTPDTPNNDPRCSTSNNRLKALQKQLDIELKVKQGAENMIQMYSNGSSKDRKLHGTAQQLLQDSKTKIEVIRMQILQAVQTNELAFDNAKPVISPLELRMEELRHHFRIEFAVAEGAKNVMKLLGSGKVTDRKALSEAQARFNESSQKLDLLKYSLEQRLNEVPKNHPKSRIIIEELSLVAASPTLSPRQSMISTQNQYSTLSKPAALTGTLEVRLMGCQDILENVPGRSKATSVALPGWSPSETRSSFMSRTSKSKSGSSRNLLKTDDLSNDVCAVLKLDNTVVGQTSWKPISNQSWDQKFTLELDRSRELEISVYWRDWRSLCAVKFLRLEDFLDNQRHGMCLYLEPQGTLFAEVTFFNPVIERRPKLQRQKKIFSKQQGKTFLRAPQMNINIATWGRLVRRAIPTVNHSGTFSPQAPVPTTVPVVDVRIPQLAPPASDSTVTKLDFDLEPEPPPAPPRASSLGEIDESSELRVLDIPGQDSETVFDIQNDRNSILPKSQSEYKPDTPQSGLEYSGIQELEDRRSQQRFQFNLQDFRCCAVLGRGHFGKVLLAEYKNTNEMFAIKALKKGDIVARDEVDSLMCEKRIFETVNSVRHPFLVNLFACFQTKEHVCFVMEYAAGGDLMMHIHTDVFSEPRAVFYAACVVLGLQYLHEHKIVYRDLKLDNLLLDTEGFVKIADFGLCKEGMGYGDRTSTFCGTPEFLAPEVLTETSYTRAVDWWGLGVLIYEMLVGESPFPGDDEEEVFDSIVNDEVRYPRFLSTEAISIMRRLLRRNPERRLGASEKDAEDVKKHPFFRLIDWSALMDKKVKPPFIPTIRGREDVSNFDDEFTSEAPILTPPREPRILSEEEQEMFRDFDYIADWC
Sequence of Misshapen-like kinase 1 (Homo sapiens) (Q8N4C8 whole entry, looked up): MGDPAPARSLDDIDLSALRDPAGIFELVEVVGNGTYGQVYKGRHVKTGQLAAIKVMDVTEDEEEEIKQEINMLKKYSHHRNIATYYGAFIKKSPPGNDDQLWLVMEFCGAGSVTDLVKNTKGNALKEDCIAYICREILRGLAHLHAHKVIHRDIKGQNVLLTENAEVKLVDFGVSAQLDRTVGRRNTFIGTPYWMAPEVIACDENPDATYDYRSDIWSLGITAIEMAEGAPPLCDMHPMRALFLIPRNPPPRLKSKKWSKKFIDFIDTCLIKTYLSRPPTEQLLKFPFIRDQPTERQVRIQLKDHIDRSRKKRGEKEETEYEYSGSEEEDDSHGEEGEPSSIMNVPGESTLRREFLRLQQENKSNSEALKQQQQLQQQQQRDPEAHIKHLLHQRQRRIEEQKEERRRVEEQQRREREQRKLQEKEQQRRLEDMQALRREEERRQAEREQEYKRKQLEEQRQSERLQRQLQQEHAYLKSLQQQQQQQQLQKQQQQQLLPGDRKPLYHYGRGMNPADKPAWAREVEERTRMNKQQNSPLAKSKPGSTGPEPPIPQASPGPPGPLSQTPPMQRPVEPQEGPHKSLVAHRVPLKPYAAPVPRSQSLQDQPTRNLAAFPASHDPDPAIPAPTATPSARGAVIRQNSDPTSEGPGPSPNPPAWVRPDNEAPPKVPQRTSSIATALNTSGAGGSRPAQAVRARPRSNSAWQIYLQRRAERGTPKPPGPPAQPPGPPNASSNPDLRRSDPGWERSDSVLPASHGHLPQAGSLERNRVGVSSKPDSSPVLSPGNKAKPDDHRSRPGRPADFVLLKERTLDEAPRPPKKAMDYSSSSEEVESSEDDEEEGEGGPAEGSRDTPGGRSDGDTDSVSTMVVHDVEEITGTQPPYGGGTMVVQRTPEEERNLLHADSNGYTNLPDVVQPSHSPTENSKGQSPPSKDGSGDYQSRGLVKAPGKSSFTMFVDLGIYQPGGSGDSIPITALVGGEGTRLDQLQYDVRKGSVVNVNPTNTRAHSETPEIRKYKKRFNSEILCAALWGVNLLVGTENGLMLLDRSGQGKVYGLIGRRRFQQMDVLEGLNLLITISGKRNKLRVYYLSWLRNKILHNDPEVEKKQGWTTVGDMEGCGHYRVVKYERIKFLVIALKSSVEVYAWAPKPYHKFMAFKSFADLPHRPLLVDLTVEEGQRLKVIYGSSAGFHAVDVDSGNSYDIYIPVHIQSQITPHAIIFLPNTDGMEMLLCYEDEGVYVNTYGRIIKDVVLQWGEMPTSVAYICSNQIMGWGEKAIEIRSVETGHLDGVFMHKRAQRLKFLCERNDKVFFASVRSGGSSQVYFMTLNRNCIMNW
Sequence of TRAF2 and NCK-interacting protein kinase (Homo sapiens) (Q9UKE5 whole entry, looked up): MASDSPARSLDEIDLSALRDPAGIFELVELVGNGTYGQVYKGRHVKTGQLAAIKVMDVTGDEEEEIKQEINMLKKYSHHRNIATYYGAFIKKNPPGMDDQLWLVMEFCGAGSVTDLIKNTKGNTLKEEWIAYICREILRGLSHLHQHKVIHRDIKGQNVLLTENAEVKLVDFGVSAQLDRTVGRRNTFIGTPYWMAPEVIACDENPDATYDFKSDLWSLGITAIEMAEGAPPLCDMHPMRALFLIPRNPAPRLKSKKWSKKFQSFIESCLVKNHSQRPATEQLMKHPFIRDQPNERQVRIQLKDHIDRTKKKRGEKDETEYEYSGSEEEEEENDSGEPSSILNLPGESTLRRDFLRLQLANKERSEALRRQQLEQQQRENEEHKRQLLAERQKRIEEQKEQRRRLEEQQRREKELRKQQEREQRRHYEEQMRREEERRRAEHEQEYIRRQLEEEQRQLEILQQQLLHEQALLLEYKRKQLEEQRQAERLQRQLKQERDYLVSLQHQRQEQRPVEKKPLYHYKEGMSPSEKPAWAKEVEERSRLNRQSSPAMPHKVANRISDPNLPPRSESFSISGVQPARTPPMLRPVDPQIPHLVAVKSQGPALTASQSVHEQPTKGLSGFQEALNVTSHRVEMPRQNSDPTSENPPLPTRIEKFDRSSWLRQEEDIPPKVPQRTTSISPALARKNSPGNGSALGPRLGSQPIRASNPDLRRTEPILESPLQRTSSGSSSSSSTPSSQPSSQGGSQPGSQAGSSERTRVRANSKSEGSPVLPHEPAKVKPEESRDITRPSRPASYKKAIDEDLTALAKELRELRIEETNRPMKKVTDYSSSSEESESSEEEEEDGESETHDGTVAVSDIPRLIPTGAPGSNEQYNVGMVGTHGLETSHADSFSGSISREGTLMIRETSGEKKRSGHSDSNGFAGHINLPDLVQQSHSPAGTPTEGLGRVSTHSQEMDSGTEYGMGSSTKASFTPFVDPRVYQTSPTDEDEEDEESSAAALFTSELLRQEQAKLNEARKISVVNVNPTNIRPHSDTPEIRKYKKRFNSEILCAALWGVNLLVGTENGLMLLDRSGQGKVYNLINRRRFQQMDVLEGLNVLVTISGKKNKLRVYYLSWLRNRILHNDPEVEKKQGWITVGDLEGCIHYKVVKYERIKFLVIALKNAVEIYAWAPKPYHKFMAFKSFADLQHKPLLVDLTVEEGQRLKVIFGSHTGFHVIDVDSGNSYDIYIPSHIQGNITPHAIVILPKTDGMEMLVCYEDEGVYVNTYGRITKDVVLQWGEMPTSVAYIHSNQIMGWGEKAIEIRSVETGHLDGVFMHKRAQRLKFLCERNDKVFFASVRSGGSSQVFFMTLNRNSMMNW
Sequence of Serine/threonine-protein kinase TBK1 (Homo sapiens) (Q9UHD2 whole entry): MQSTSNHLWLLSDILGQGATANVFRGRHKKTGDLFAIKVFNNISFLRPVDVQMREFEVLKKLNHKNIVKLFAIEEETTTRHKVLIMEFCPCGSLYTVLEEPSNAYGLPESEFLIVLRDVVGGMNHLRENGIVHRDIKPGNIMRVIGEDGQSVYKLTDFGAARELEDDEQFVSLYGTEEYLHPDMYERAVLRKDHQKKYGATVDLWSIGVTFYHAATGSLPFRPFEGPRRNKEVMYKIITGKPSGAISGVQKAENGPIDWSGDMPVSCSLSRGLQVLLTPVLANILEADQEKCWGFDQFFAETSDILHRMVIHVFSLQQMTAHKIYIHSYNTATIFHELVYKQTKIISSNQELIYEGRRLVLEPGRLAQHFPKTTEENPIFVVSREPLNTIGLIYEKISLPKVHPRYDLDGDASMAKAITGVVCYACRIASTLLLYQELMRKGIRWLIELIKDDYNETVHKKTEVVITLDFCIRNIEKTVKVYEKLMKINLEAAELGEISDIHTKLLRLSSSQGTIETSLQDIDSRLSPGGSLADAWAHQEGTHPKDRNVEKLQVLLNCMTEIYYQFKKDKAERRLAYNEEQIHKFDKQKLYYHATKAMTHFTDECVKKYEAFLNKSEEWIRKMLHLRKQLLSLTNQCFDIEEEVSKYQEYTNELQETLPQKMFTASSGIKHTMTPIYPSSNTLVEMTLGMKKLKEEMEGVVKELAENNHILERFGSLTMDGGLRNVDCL

N#CC1(c2ccccn2)CCN(Cc2cc(C(=O)O)c(=O)n3ccccc23)CC1 [MSD-M1PAM]
inactive: residual activity [1] 75% | residual activity [2] 100% | residual activity [3] 85% | residual activity [4] 95% | residual activity [5] 100% | inhibition [6] 12% | residual activity [7] 100% | residual activity [8] 98% | residual activity [9] 62% | residual activity [10] 100% | residual activity [11] 100% | residual activity [12] 92% | residual activity [13] 100% | residual activity [14] 96% | inhibition [15] 11.7% | residual activity [16] 95% | residual activity [17] 83% | residual activity [18] 83% | residual activity [19] 100% | residual activity [20] 94% | residual activity [21] 77% | residual activity [22] 87% | residual activity [23] 100% | residual activity [24] 84% | residual activity [25] 80% | residual activity [26] 93% | residual activity [27] 100% | residual activity [28] 89% | inhibition [29] 20.2% | residual activity [30] 100% | residual activity [31] 83% | residual activity [32] 75% | residual activity [33] 100% | residual activity [34] 84% | residual activity [35] 76% | residual activity [36] 57% | residual activity [37] 84%

N#CC1(c2ccccn2)CCN(Cc2cc(C(=O)N3CCCC3)c(=O)n3ccccc23)CC1
inactive: residual activity [1] 80% | residual activity [2] 87% | residual activity [3] 100% | residual activity [4] 100% | residual activity [5] 80% | inhibition [6] 6.59% | residual activity [7] 100% | residual activity [8] 99% | residual activity [9] 100% | residual activity [10] 88% | residual activity [11] 79% | residual activity [12] 89% | residual activity [13] 99% | residual activity [14] 80% | inhibition [15] 3.1% | residual activity [16] 94% | residual activity [17] 84% | residual activity [18] 100% | residual activity [19] 76% | residual activity [20] 87% | residual activity [21] 92% | residual activity [22] 90% | residual activity [23] 100% | residual activity [24] 76% | residual activity [25] 90% | residual activity [26] 82% | residual activity [27] 88% | residual activity [28] 97% | inhibition [29] 23.2% | residual activity [30] 78% | residual activity [31] 100% | residual activity [32] 100% | residual activity [33] 100% | residual activity [34] 85% | residual activity [35] 91% | residual activity [36] 100% | residual activity [37] 96%
